Measurements as given in PMC11576293, “New series of 4,6-diaryl pyrimidines: facile synthesis and antiproliferative activity as dual EGFR/VEGFR-2 inhibitors” (Frontiers in Chemistry, 2024).

Key:
Assay in all cases: NCI-60 single-dose screen
Format in all cases: cell-based
MALME-3M = conditions: Homo sapiens, single dose 10 µM, '-' = no inhibition, read-out: % Growth Inhibition
Outline: (§1)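 NCI DTP single-dose screen; 10 μM compound; 60-line panel, nine cancer types.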

LOX IMVI = conditions: Homo sapiens, single dose 10 µM, '-' = no inhibition, read-out: % Growth Inhibition
Outline: as §1

COLO 205 = conditions: Homo sapiens, single dose 10 µM, '-' = no inhibition, read-out: % Growth Inhibition
Outline: as §1

MCF7 = conditions: Homo sapiens, single dose 10 µM, '-' = no inhibition, read-out: % Growth Inhibition
Outline: as §1

RPMI-8226 = conditions: Homo sapiens, single dose 10 µM, '-' = no inhibition, read-out: % Growth Inhibition
Outline: as §1

NCI-H322M = conditions: Homo sapiens, single dose 10 µM, '-' = no inhibition, read-out: % Growth Inhibition
Outline: as §1

786-0 = conditions: Homo sapiens, single dose 10 µM, '-' = no inhibition, read-out: % Growth Inhibition
Outline: as §1

HCT-116 = conditions: Homo sapiens, single dose 10 µM, '-' = no inhibition, read-out: % Growth Inhibition
Outline: as §1

NCI-H522 = conditions: Homo sapiens, single dose 10 µM, '-' = no inhibition, read-out: % Growth Inhibition
Outline: as §1

MDA-MB-435 = conditions: Homo sapiens, single dose 10 µM, '-' = no inhibition, read-out: % Growth Inhibition
Outline: as §1

MDA-MB231/ATCC = conditions: Homo sapiens, MDA-MB-231, single dose 10 µM, '-' = no inhibition, read-out: % Growth Inhibition
Outline: as §1

UACC-257 = conditions: Homo sapiens, single dose 10 µM, '-' = no inhibition, read-out: % Growth Inhibition
Outline: as §1

K-562 = conditions: Homo sapiens, K562, single dose 10 µM, '-' = no inhibition, read-out: % Growth Inhibition
Outline: as §1

KM12 = conditions: Homo sapiens, single dose 10 µM, '-' = no inhibition, read-out: % Growth Inhibition
Outline: as §1

UO-31 = conditions: Homo sapiens, single dose 10 µM, '-' = no inhibition, read-out: % Growth Inhibition
Outline: as §1

TK-10 = conditions: Homo sapiens, single dose 10 µM, '-' = no inhibition, read-out: % Growth Inhibition
Outline: as §1

HL-60(TB) = conditions: Homo sapiens, single dose 10 µM, '-' = no inhibition, read-out: % Growth Inhibition
NCI-H460 = conditions: Homo sapiens, single dose 10 µM, '-' = no inhibition, read-out: % Growth Inhibition
Outline: as §1

DU-145 = conditions: Homo sapiens, single dose 10 µM, '-' = no inhibition, read-out: % Growth Inhibition
Outline: as §1

BT-549 = conditions: Homo sapiens, single dose 10 µM, '-' = no inhibition, read-out: % Growth Inhibition
Outline: as §1

SNB-75 = conditions: Homo sapiens, single dose 10 µM, '-' = no inhibition, read-out: % Growth Inhibition
Outline: as §1

PC-3 = conditions: Homo sapiens, single dose 10 µM, '-' = no inhibition, read-out: % Growth Inhibition
Outline: as §1

HOP-62 = conditions: Homo sapiens, single dose 10 µM, '-' = no inhibition, read-out: % Growth Inhibition
Outline: as §1

HCC-2998 = conditions: Homo sapiens, single dose 10 µM, '-' = no inhibition, read-out: % Growth Inhibition
Outline: as §1

SK-MEL-2 = conditions: Homo sapiens, single dose 10 µM, '-' = no inhibition, read-out: % Growth Inhibition
Outline: as §1

SR = conditions: Homo sapiens, single dose 10 µM, '-' = no inhibition, read-out: % Growth Inhibition
Outline: as §1

OVCAR-4 = conditions: Homo sapiens, single dose 10 µM, '-' = no inhibition, read-out: % Growth Inhibition
Outline: as §1

A498 = conditions: Homo sapiens, single dose 10 µM, '-' = no inhibition, read-out: % Growth Inhibition
Outline: as §1

HOP-92 = conditions: Homo sapiens, single dose 10 µM, '-' = no inhibition, read-out: % Growth Inhibition
Outline: as §1

U251 = conditions: Homo sapiens, U-251, single dose 10 µM, '-' = no inhibition, read-out: % Growth Inhibition
Outline: as §1

UACC-62 = conditions: Homo sapiens, single dose 10 µM, '-' = no inhibition, read-out: % Growth Inhibition
Outline: as §1

SK-MEL-5 = conditions: Homo sapiens, single dose 10 µM, '-' = no inhibition, read-out: % Growth Inhibition
Outline: as §1

OVCAR-8 = conditions: Homo sapiens, single dose 10 µM, '-' = no inhibition, read-out: % Growth Inhibition
Outline: as §1

A549/ATCC = conditions: Homo sapiens, single dose 10 µM, '-' = no inhibition, read-out: % Growth Inhibition
Outline: as §1

SF-268 = conditions: Homo sapiens, single dose 10 µM, '-' = no inhibition, read-out: % Growth Inhibition
Outline: as §1

MDA-MB-468 = conditions: Homo sapiens, single dose 10 µM, '-' = no inhibition, read-out: % Growth Inhibition
Outline: as §1

OVCAR-3 = conditions: Homo sapiens, single dose 10 µM, '-' = no inhibition, read-out: % Growth Inhibition
Outline: as §1

SNB-19 = conditions: Homo sapiens, single dose 10 µM, '-' = no inhibition, read-out: % Growth Inhibition
Outline: as §1

IGROV1 = conditions: Homo sapiens, IGROV-1, single dose 10 µM, '-' = no inhibition, read-out: % Growth Inhibition
Outline: as §1

NCI/ADR-RES = conditions: Homo sapiens, single dose 10 µM, '-' = no inhibition, read-out: % Growth Inhibition
Outline: as §1

ACHN 1 = conditions: Homo sapiens, single dose 10 µM, '-' = no inhibition, read-out: % Growth Inhibition
Outline: as §1

CAKI-1 = conditions: Homo sapiens, single dose 10 µM, '-' = no inhibition, read-out: % Growth Inhibition
Outline: as §1

RXF 393 = conditions: Homo sapiens, single dose 10 µM, '-' = no inhibition, read-out: % Growth Inhibition
Outline: as §1

SK-MEL-28 = conditions: Homo sapiens, single dose 10 µM, '-' = no inhibition, read-out: % Growth Inhibition
Outline: as §1

SN12C = conditions: Homo sapiens, single dose 10 µM, '-' = no inhibition, read-out: % Growth Inhibition
Outline: as §1

NCI-H23 = conditions: Homo sapiens, single dose 10 µM, '-' = no inhibition, read-out: % Growth Inhibition
Outline: as §1

EKVX = conditions: Homo sapiens, single dose 10 µM, '-' = no inhibition, read-out: % Growth Inhibition
Outline: as §1

OVCAR-5 = conditions: Homo sapiens, single dose 10 µM, '-' = no inhibition, read-out: % Growth Inhibition
Outline: as §1

C=CCSc1nc(-c2ccc(Cl)cc2)cc(-c2ccc(OC)cc2)n1 [Compound 13, 2-(Allylthio)-4-(4-chlorophenyl)-6-(4-methoxyphenyl)pyrimidine]
inhibition at 10 µM (MALME-3M): < 0%
inhibition at 10 µM (LOX IMVI): 4.72%
inhibition at 10 µM (COLO 205): < 0%
inhibition at 10 µM (MCF7): < 0%
inhibition at 10 µM (RPMI-8226): 4.91%
inhibition at 10 µM (NCI-H322M): 0.59%
inhibition at 10 µM (786-0): 3.01%
inhibition at 10 µM (HCT-116): 5.47%
inhibition at 10 µM (NCI-H522): 10.2%
inhibition at 10 µM (MDA-MB-435): 5.34%
inhibition at 10 µM (MDA-MB231/ATCC): < 0%
inhibition at 10 µM (UACC-257): < 0%
inhibition at 10 µM (K-562): 15.6%
inhibition at 10 µM (KM12): 0.8%
inhibition at 10 µM (UO-31): 18.9%
inhibition at 10 µM (TK-10): < 0%
inhibition at 10 µM (HL-60(TB)): 26.8%
inhibition at 10 µM (NCI-H460): 0.1%
inhibition at 10 µM (DU-145): 1.02%
inhibition at 10 µM (BT-549): < 0%
inhibition at 10 µM (SNB-75): < 0%
inhibition at 10 µM (PC-3): 1.15%
inhibition at 10 µM (HOP-62): < 0%
inhibition at 10 µM (HCC-2998): < 0%
inhibition at 10 µM (SK-MEL-2): 4.96%
inhibition at 10 µM (SR): 19.9%
inhibition at 10 µM (OVCAR-4): 12.1%
inhibition at 10 µM (A498): < 0%
inhibition at 10 µM (HOP-92): < 0%
inhibition at 10 µM (U251): < 0%
inhibition at 10 µM (UACC-62): 26.2%
inhibition at 10 µM (SK-MEL-5): 1%
inhibition at 10 µM (OVCAR-8): < 0%
inhibition at 10 µM (A549/ATCC): < 0%
inhibition at 10 µM (SF-268): < 0%
inhibition at 10 µM (MDA-MB-468): 16.2%
inhibition at 10 µM (OVCAR-3): < 0%
inhibition at 10 µM (SNB-19): 6.79%
inhibition at 10 µM (IGROV1): < 0%
inhibition at 10 µM (NCI/ADR-RES): 6.28%
inhibition at 10 µM (ACHN 1): < 0%
inhibition at 10 µM (CAKI-1): 14.8%
inhibition at 10 µM (RXF 393): 0.35%
inhibition at 10 µM (SK-MEL-28): < 0%
inhibition at 10 µM (SN12C): 6.62%
inhibition at 10 µM (NCI-H23): 3.36%
inhibition at 10 µM (EKVX): 2.11%
inhibition at 10 µM (OVCAR-5): < 0%
